Assay results from patent US5625056A, “Derivatives of cyclic guanosine-3',5'-monophosphorothioate” (BIOLOG Life Science Institute, priority 1992, dated 1997).

Tests used:
[1] = tested on: phosphorylation of a 46/50 kDa-band in membranes of human thrombocytes; assay: cGMP-modulated phosphorylation of a 46/50 kDa band in membranes of human thrombocytes; format: biochemical
Description: (§1) Isolation of cGK I from bovine lung and of cAK II from bovine heart is performed as has been already published (Walter et al., J. Biol. Chem., 255, 3757-3762 (1980)). Protein kinase activity is determined according to the method of Roskoski (Methods Enzymol., 99, 3-6 (1983)). In vitro data on membranes of human thrombocytes are obtained as has already been described by Halbrugge et al. (Eur. J. Biochem., 185, 41-50, (1989)).
(§2) Compounds with extraordinary good membrane permeability are tested in vivo with intact human thrombocytes according to Halbrugge et al. CJ. Biol. Chem., 265, 3088-3093 (1990)).

[2] = tested on: cGMP-dependent phosphorylation of three proteins of the masses 46, 50 and 130 kDa; assay: cGMP-dependent phosphorylation of three proteins of 46, 50 and 130 kDa
[3] = tested on: cGMP signal transduction pathway; assay: Selective block of the cGMP signal transduction pathway; conditions: selectivity over cAMP-mediated effects
physchem = conditions: reversed-phase hplc
[4] = biological target: T1, cGMP-dependent protein kinases (Bos taurus, UniProt P00516); assay: Inhibition/activation of cGMP-dependent protein kinase (cGK); format: biochemical, bovine
T1 construct: Isolation of cGK I from bovine lung; from tissue; host or cells: bovine lung
T1 sequence (P00516 2-671 limits assumed): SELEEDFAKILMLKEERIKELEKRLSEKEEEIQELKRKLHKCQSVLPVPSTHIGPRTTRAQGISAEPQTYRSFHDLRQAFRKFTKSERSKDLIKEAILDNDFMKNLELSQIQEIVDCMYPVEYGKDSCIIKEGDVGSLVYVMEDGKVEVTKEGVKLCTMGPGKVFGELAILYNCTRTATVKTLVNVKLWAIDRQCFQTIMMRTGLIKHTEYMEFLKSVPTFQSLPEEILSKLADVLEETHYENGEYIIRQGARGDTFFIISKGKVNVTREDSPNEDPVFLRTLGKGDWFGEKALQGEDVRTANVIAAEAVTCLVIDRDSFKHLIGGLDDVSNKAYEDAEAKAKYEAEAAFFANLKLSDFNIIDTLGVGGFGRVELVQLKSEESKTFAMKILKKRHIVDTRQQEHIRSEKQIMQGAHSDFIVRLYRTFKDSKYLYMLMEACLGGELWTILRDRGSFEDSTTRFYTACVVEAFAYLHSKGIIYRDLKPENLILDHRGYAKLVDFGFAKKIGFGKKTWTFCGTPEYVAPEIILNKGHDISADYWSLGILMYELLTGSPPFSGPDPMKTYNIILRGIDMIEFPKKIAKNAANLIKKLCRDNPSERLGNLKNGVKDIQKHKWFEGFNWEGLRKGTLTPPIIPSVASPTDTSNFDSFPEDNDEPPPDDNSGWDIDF
Description: as §1

perfused aorta muscle = assay: SIN 1-stimulated relaxation in perfused aorta muscle
[5] = Cell membrane permeability; format: in vitro ADME
[6] = tested on: cGMP-inhibited phosphodieserases (cGI-PDE); assay: Inhibition of cGMP-inhibited phosphodiesterases (cGI-PDE); format: biochemical
cAK II = biological target: T2, cAK II (Bos taurus, UniProt P00515); assay: Activation of cAK II; format: biochemical, bovine; conditions: at high concentrations
T2 construct: of cAK II from bovine heart; from tissue; host or cells: bovine heart
T2 sequence (P00515 2-401 limits assumed): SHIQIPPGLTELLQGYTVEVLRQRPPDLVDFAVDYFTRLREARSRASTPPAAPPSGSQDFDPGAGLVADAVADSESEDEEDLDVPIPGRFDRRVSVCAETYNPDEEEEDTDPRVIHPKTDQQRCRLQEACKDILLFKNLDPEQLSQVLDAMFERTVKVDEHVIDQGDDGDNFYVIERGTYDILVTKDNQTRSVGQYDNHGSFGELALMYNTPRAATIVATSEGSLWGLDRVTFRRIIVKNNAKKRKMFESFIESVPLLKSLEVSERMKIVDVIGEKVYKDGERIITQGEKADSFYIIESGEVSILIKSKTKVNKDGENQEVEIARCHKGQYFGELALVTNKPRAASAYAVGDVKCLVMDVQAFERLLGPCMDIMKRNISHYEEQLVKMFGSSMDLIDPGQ
Description: as §1

cGK I = biological target: T3, cGK I (Bos taurus, UniProt P00516); assay: Inhibition of isolated cGK I; format: biochemical, bovine
T3 construct: Isolation of cGK I from bovine lung; from tissue; host or cells: bovine lung
T3 sequence (P00516 1-671): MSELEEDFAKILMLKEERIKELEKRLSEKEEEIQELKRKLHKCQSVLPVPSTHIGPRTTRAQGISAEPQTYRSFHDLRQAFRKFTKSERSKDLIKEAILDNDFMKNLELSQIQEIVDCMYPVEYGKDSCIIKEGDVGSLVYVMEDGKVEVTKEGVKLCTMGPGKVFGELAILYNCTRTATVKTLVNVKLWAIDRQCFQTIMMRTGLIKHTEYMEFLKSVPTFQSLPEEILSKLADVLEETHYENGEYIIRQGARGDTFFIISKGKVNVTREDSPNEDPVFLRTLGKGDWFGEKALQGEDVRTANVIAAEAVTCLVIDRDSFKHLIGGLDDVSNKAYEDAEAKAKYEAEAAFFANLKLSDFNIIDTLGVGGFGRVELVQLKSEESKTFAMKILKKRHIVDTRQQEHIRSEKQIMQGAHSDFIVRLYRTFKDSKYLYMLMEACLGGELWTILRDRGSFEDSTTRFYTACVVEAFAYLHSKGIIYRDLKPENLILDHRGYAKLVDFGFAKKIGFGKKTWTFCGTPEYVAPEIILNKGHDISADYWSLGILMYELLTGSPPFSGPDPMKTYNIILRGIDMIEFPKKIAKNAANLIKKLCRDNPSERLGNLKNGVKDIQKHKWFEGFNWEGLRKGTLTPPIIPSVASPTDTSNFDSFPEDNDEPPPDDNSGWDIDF
Description: as §1

[7] = tested on: cGMP-dependent phosphorylation in intact human thrombocytes; assay: cGMP-dependent phosphorylation in intact human thrombocytes (in vivo); format: cell-based
Description: as §2

[8] = tested on: cAMP-dependent phosphorylation of a 22- and a 240 kDa-band; assay: cAMP-dependent phosphorylation of 22 and 240 kDa bands in membranes of human thrombocytes; format: biochemical
Description: as §1, §2

cAK = conditions: cited from earlier work
[9] = tested on: cAMP-dependent protein kinases type II (cAK II); conditions: Botelho et al. 1988; cited from earlier work
[10] = tested on: cAMP-dependent protein kinases type I (cAK I); conditions: Botelho et al. 1988; cited from earlier work
[11] = biological target: T1, cGMP-dependent protein kinases; conditions: background literature (Butt et al. 1990); cited from earlier work
[12] = reversed-phase HPLC; has been reported; cited from earlier work

## O=c1c2nc(Br)n([C@@H]3O[C@@H]4CO[P@@](O)(=S)O[C@H]4[C@H]3O)c2nc2[nH]c(-c3ccccc3)cn12 [RP -8-Br-PET-cGMPS, Cyclic β-phenyl-1,N^2-etheno-8-bromoguanosine-3',5'-monophosphorothioate, RP -diastereomer]
[1]; thrombocyte membranes, relative to RP -8-pCPT-cGMPS
  effectivity at thrombocyte membranes, factor over RP -8-pCPT-cGMPS: 5-10
[2]
  cGMP-dependent phosphorylation of three proteins: inhibited
[3]
  block of cGMP signal transduction pathway: blocks selectively the cGMP signal transduction pathway without affecting cAMP-mediated effects
physchem
  chromatographic logP: 3.22
[4]
  type of inhibition of cGMP-dependent protein kinases: competitive inhibitor
[4]; cGMP-dependent protein kinases, competitive inhibitor, read-out: inhibition constant Ki
  Ki: 0.03 µM
Perfused aorta muscle
  SIN 1-stimulated relaxation: inhibited

## Nc1nc2c(nc(Sc3ccc(Cl)cc3)n2[C@@H]2O[C@@H]3CO[P@@](O)(=S)O[C@H]3[C@H]2O)c(=O)[nH]1 [RP -8-pCPT-cGMPS, Cyclic 8-(4-chlorophenylthio)-guanosine-3',5'-monophosphorothioate, RP -diastereomer]
[1]; membranes of human thrombocytes
  phosphorylation of a 46/50 kDa-band: inhibits the phosphorylation
[5]
  cell membrane permeability: excellent cell membrane permeability
[6]
  inhibition of cGI-PDE: poor inhibitor
physchem
  chromatographic logP: 2.82
cAK II
  agonism for cAK II: weakly partial agonist
cGK I; isolated cGK I
  type of inhibition of isolated cGK I: competitive inhibitor
cGK I; read-out: inhibition constant Ki
  Ki: 0.7 µM
[7]
  cGMP-dependent (cGMP-mediated) phosphorylation: inhibits the cGMP-dependent phosphorylation even in intact human thrombocytes
[8]
  cAMP-dependent phosphorylation of a 22- and a 240 kDa-band: not disturbed

## O=c1c2ncn([C@@H]3O[C@@H]4CO[P@@](O)(=S)O[C@H]4[C@H]3O)c2[nH]c2nc(-c3ccccc3)cn12 [RP -PET-cGMPS, Cyclic β-phenyl-1,N^2-ethenoguanosine-3',5'-monophosphorothioate, RP -diastereomer]
physchem
  chromatographic logP: 2.81

## Nc1ncnc2c1ncn2[C@@H]1O[C@@H]2CO[P@@](O)(=S)O[C@H]2[C@H]1O [RP -cAMPS, adenosine-3',5'-monophosphorothioate]
cAK; Botelho et al. 1988
  cAMP antagonism: antagonist of cAMP
[9]
  inhibition of cAK II: competitive inhibitor
[10]
  inhibition of cAK I: competitive inhibitor

## Nc1nc2c(ncn2[C@@H]2O[C@@H]3CO[P@@](O)(=S)O[C@H]3[C@H]2O)c(=O)[nH]1 [RP -cGMPS, RP -Guanosine-3',5'-monophosphorothioate]
[11]
  inhibitory properties / specificity for cGK: lacks the required specificity for cGMP-dependent protein kinase (cGK)
cAK; background literature
  inhibition/agonism of cAK: inhibits cAK as well

## Nc1nc2c(nc(Sc3ccc(Cl)cc3)n2[C@@H]2O[C@@H]3CO[P@](O)(=S)O[C@H]3[C@H]2O)c(=O)[nH]1 [SP -8-pCPT-cGMPS, Cyclic 8-(4-chlorophenylthio)-guanosine-3',5'-monophosphorothioate, SP -diastereomer]
physchem
  chromatographic logP: 2.84
[4]; isolated cGK
  activation of isolated cGK: activator
[7]
  cGMP-dependent (cGMP-mediated) phosphorylation: activator

## O=c1c2ncn([C@@H]3O[C@@H]4CO[P@](O)(=S)O[C@H]4[C@H]3O)c2[nH]c2nc(-c3ccccc3)cn12 [SP -PET-cGMPS, Cyclic β-phenyl-1,N^2-ethenoguanosine-3',5'-monophosphorothioate, SP -diastereomer]
physchem
  chromatographic logP: 2.83

## Nc1nc2c(ncn2[C@@H]2O[C@@H]3COP(=O)(O)O[C@H]3[C@H]2O)c(=O)[nH]1 [cGMP, guanosine-3',5'-monophosphate, reference compound]
physchem
  chromatographic logP: 0.77
[12]
  log KW: 0.85
